Assay results as given in publication PMC9779606, “Synthesis, Structural Characterization and Biological Activity Evaluation of Novel Cu(II) Complexes with 3-(trifluoromethyl)phenylthiourea Derivatives” (International Journal of Molecular Sciences, 2022).

What was measured:
[1] = system: HaCaT (immortalized human keratinocytes); experiment: Cytotoxicity, MTT assay; format: cell-based; conditions: normal cells, 72 h, mean SD
Protocol: (§1) MTT assay was performed as previously described. Experiments were repeated three times. […] Decreased relative MTT level means decreased cell viability.

S. epidermidis 513 = experiment: MIC, hospital methicillin-resistant strains (MRSE); conditions: hospital MRSE strain S. epidermidis 513
S. epidermidis 431 = experiment: MIC, hospital methicillin-resistant strains (MRSE); conditions: hospital MRSE strain S. epidermidis 431
S. aureus 522 = experiment: MIC, hospital methicillin-resistant strains (MRSA); conditions: hospital MRSA strain S. aureus 522
S. aureus 495 = experiment: MIC, hospital methicillin-resistant strains (MRSA); conditions: hospital MRSA strain S. aureus 495
S. epidermidis 515 = experiment: MIC, hospital methicillin-resistant strains (MRSE); conditions: hospital MRSE strain S. epidermidis 515
S. epidermidis 424 = experiment: MIC, hospital methicillin-resistant strains (MRSE); conditions: hospital MRSE strain S. epidermidis 424
P. aeruginosa ATCC 15442 = experiment: MIC, twofold serial microdilution, standard strains; conditions: P. aeruginosa ATCC 15442, standard strain
S. aureus ATCC 6538 = experiment: as above; conditions: S. aureus ATCC 6538, standard strain
S. epidermidis 510 = experiment: MIC, hospital methicillin-resistant strains (MRSE); conditions: hospital MRSE strain S. epidermidis 510
C. albicans ATCC 90028 = experiment: MIC, twofold serial microdilution, standard fungal strains; conditions: C. albicans ATCC 90028, standard strain
S. aureus 573 = experiment: MIC, hospital methicillin-resistant strains (MRSA); conditions: hospital MRSA strain S. aureus 573
E. coli NCTC 10538 = experiment: MIC, twofold serial microdilution, standard strains; conditions: E. coli NCTC 10538, standard strain
[2] = system: C. parapsilosis ATCC 22019; experiment: MIC, twofold serial microdilution, standard fungal strains; conditions: C. parapsilosis ATCC 22019, standard strain
S. epidermidis 469 = experiment: MIC, hospital methicillin-resistant strains (MRSE); conditions: hospital MRSE strain S. epidermidis 469
S. aureus 481 = experiment: MIC, hospital methicillin-resistant strains (MRSA); conditions: hospital MRSA strain S. aureus 481
S. epidermidis 511 = experiment: MIC, hospital methicillin-resistant strains (MRSE); conditions: hospital MRSE strain S. epidermidis 511
S. epidermidis 420 = experiment: MIC, hospital methicillin-resistant strains (MRSE); conditions: hospital MRSE strain S. epidermidis 420
S. aureus 586 = experiment: MIC, hospital methicillin-resistant strains (MRSA); conditions: hospital MRSA strain S. aureus 586
P. aeruginosa ATCC 27853 = experiment: MIC, twofold serial microdilution, standard strains; conditions: P. aeruginosa ATCC 27853, standard strain
S. aureus 537 = experiment: MIC, hospital methicillin-resistant strains (MRSA); conditions: hospital MRSA strain S. aureus 537
[3] = target: T1, S. aureus topoisomerase IV (Staphylococcus aureus, UniProt P0C1S7+P0C1U9); experiment: S. aureus topoisomerase IV decatenation assay; format: biochemical; conditions: kDNA decatenation, 30 min at 37 °C
T1 construct: purchased Inspiralis, Norwich, UK
Protocol: The assay was performed using a S. aureus topoisomerase IV decantation kit (Inspiralis, Norwich, UK). Kinetoplast DNA (kDNA) was the substrate for topoisomerase IV. Firstly, 1 U of topoisomerase IV decatenated 200 ng of kDNA, in the dedicated decantation assay buffer supplied by the manufacturer. […] The reactions were terminated by adding an equal volume of STEB buffer (40% sucrose, 100 mM Tris-HCl pH 8, 1 mM EDTA, 0.5 mg/mL bromophenol blue), followed by extraction with 1 volume of chloroform/isoamyl alcohol (24:1). Then, 20 µL of the aqueous phase of each sample was loaded onto a 1% agarose gel. Electrophoresis was conducted in Tris-acetate-EDTA buffer for 1.5 h at 80 V. Gels were stained with ethidium bromide and visualized under UV light in a transilluminator (ChemiDoc MP, Bio-Rad, Hercules, CA, USA).

staphylococcal isolates = experiment: MIC, standard staphylococcal strains; conditions: text summary of Table 4
SW480, SW620, and PC3 = experiment: Cytotoxicity, MTT assay, all cancer cell lines; format: cell-based, human; conditions: 72 h, read-out: IC50 towards all investigated cancer cells
Protocol: as §1

S. aureus DNA gyrase = target: T2, S. aureus DNA gyrase (Staphylococcus aureus, UniProt P0A0K8+P20831); experiment: S. aureus DNA gyrase supercoiling assay; format: biochemical; conditions: pBR322 supercoiling, 30 min at 37 °C
T2 construct: purchased Inspiralis, Norwich, UK
T2 sequence (P20831 whole entry): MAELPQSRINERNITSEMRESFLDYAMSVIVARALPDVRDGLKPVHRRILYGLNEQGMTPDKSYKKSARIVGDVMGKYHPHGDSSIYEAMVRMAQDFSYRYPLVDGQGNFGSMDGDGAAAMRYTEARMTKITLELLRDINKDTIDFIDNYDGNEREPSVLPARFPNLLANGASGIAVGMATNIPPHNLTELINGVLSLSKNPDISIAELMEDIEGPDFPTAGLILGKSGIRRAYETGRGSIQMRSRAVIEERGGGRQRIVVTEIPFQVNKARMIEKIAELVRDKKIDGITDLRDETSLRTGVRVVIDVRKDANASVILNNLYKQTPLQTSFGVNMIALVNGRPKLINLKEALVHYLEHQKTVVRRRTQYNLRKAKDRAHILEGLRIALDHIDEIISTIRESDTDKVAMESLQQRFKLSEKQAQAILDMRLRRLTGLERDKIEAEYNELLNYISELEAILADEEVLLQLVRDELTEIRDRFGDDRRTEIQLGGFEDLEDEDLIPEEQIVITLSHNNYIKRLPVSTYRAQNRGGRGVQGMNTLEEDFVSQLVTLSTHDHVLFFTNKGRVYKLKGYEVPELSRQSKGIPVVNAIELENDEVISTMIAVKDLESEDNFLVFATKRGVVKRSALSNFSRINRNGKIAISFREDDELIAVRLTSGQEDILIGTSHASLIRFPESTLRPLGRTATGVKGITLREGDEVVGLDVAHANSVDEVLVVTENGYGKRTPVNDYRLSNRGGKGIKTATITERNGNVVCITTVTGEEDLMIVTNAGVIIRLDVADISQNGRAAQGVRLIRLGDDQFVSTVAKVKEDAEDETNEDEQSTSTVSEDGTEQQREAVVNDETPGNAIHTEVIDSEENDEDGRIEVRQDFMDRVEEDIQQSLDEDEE
T2 sequence (P0A0K8 whole entry): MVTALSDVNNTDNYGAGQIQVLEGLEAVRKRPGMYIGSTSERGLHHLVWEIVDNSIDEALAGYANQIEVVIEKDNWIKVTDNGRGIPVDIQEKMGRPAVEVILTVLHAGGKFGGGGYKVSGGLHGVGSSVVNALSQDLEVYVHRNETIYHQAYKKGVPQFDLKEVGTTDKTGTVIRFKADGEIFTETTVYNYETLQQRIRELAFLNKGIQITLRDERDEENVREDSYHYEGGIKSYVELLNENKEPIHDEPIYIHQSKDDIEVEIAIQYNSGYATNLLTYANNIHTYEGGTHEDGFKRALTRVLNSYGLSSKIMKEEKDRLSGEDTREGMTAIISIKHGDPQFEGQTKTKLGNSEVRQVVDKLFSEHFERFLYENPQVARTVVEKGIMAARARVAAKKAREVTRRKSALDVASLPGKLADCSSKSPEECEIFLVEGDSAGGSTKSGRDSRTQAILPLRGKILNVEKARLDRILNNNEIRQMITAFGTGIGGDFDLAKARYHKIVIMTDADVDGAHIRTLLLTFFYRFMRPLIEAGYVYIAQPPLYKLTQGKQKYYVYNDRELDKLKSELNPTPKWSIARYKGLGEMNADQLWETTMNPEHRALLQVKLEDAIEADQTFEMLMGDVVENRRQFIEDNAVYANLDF
Protocol: The assay was performed using a S. aureus DNA Gyrase Supercoiling kit (Inspiralis, Norwich, UK). The activity of DNA topoisomerase II was determined by measuring the conversion of relaxed pBR322 DNA to its supercoiled form. The reaction mixture contained 500 ng of mMpBR322 plasmid DNA and 1 U of enzyme and different concentrations of the compound in a total reaction volume of 30 µL. The mixture was incubated for 30 min at 37 °C. The reactions were terminated by adding an equal volume of STEB buffer (40% sucrose, 100 mM Tris-HCl pH 8, 1 mM EDTA, 0.5 mg/mL bromophenol blue), followed by extraction with 1 volume of chloroform/isoamyl alcohol (24:1). Then, 20 µL of the aqueous phase of each sample was loaded onto a 1% agarose gel. Electrophoresis was conducted in Tris-acetate-EDTA buffer for 3 h at 50 V. Gels were stained with ethidium bromide and visualized under UV light in a transilluminator (ChemiDoc MP, Bio-Rad, Hercules, CA, USA).

T1 sequence (P0C1S7 whole entry): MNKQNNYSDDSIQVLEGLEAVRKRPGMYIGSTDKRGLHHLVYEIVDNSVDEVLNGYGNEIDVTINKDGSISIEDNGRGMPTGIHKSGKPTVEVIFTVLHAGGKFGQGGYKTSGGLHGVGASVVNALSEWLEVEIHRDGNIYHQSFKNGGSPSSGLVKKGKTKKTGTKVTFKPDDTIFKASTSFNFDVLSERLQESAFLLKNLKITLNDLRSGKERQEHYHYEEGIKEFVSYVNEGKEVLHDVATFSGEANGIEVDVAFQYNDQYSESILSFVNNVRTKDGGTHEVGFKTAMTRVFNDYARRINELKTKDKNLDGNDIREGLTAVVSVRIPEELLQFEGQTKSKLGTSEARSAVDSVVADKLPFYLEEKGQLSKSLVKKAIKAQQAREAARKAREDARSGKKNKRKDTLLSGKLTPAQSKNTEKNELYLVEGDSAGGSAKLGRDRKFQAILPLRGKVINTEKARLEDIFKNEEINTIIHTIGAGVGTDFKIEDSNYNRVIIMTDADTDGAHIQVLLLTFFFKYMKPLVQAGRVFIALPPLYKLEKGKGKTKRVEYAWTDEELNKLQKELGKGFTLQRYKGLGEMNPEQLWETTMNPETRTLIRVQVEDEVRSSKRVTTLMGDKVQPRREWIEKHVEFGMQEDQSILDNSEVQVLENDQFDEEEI
T1 sequence (P0C1U9 whole entry): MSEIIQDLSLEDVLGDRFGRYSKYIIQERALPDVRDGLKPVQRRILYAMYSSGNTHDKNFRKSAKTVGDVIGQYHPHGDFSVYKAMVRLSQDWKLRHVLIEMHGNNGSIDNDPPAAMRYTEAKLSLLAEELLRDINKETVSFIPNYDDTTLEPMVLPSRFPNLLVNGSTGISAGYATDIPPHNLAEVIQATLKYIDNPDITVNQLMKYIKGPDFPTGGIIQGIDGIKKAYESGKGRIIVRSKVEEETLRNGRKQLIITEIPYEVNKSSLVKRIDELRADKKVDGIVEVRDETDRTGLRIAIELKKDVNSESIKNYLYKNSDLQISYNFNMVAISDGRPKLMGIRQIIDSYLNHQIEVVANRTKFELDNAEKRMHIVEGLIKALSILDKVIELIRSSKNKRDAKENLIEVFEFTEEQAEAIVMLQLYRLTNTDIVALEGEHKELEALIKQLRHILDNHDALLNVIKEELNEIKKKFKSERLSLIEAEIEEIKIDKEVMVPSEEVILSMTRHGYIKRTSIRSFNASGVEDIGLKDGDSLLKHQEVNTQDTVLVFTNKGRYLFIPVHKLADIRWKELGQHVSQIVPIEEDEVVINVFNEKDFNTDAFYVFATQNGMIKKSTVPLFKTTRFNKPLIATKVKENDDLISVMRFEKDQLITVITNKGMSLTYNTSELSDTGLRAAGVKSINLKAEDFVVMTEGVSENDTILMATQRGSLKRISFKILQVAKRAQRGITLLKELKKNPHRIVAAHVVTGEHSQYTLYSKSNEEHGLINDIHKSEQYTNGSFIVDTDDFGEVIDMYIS

| SMILES | IC50 [1] | MIC (S. epidermidis 513) | MIC (S. epidermidis 431) | MIC (S. aureus 522) | MIC (S. aureus 495) | MIC (S. epidermidis 515) | MIC (S. epidermidis 424) | MIC (P. aeruginosa ATCC 15442) | MIC (S. aureus ATCC 6538) | MIC (S. epidermidis 510) | MIC (C. albicans ATCC 90028) | MIC (S. aureus 573) | MIC (E. coli NCTC 10538) | MIC [2] | MIC (S. epidermidis 469) | MIC (S. aureus 481) | MIC (S. epidermidis 511) | MIC (S. epidermidis 420) | MIC (S. aureus 586) | MIC (P. aeruginosa ATCC 27853) | further results |
| --- | --- | --- | --- | --- | --- | --- | --- | --- | --- | --- | --- | --- | --- | --- | --- | --- | --- | --- | --- | --- | --- |
| CC(NC(=S)[N-]c1cccc(C(F)(F)F)c1)c1ccccc1.CC(NC(=S)[N-]c1cccc(C(F)(F)F)c1)c1ccccc1.[Cu+2] (racemic) [Cu2, Copper(II) Complex with 1-(1-phenylethyl)-3-[3-(trifluoromethyl)phenyl]thiourea] | 220 ± 3.4 µM | 16 µg/mL | 16 µg/mL | 16 µg/mL | 16 µg/mL | 16 µg/mL | 16 µg/mL | 128 µg/mL | 32 µg/mL | 16 µg/mL | 128 µg/mL | 8 µg/mL | ≥256 µg/mL | 128 µg/mL | 32 µg/mL | 16 µg/mL | 16 µg/mL | 16 µg/mL | 8 µg/mL | ≥256 µg/mL | MIC (S. aureus 537): 8 µg/mL |
| O.O=[N+]([O-])c1cc(NC(=S)[N-]c2cccc(C(F)(F)F)c2)ccc1Cl.O=[N+]([O-])c1cc(NC(=S)[N-]c2cccc(C(F)(F)F)c2)ccc1Cl.[Cu+2] [Cu5, Copper(II) Complex with 1-(4-chloro-3-nitrophenyl)-3-[3-(trifluoromethyl)phenyl]thiourea] | 134 ± 2.9 µM | 2 µg/mL | 2 µg/mL | 2 µg/mL | 2 µg/mL | 4 µg/mL | 4 µg/mL | 128 µg/mL | 4 µg/mL | 4 µg/mL | 128 µg/mL | 2 µg/mL | >256 µg/mL | 128 µg/mL | 4 µg/mL | 2 µg/mL | 4 µg/mL | 4 µg/mL | 4 µg/mL | >256 µg/mL | IC50 ± S.E.M. for Topo IV [3]: 6.20 ± 0.50 µg/mL; MIC, staphylococcal isolates (staphylococcal isolates): 4 µg/mL; IC50 (SW480, SW620, and PC3): 11.7 to 19.5 µM; IC50 ± S.E.M. for Gyrase (S. aureus DNA gyrase): 16.80 ± 0.75 µg/mL; MIC (S. aureus 537): 4 µg/mL |
| FC(F)(F)c1cccc([N-]C(=S)NCc2ccccc2)c1.FC(F)(F)c1cccc([N-]C(=S)NCc2ccccc2)c1.[Cu+2] [Cu3, Copper(II) Complex with 1-benzyl-3-[3-(trifluoromethyl)phenyl]thiourea] | 65 ± 4.7 µM | 64 µg/mL | 64 µg/mL | 64 µg/mL | 64 µg/mL | 64 µg/mL | 64 µg/mL | ≥256 µg/mL | 64 µg/mL | 64 µg/mL | 32 µg/mL | 64 µg/mL | ≥256 µg/mL | 32 µg/mL | 64 µg/mL | 64 µg/mL | 64 µg/mL | 64 µg/mL | 64 µg/mL | ≥256 µg/mL | MIC (S. aureus 537): 64 µg/mL |
| FC(F)(F)c1cccc([N-]C(=S)NCCc2ccccc2)c1.FC(F)(F)c1cccc([N-]C(=S)NCCc2ccccc2)c1.O.[Cu+2] [Cu1, Copper(II) Complex with 1-(2-phenylethyl)-3-[3-(trifluoromethyl)phenyl]thiourea] | 421 ± 5.2 µM | 64 µg/mL | 128 µg/mL | 64 µg/mL | 64 µg/mL | 128 µg/mL | 128 µg/mL | 128 µg/mL | 64 µg/mL | 64 µg/mL | 128 µg/mL | 64 µg/mL | ≥256 µg/mL | 64 µg/mL | 64 µg/mL | 64 µg/mL | 128 µg/mL | 64 µg/mL | 64 µg/mL | 128 µg/mL | MIC (S. aureus 537): 64 µg/mL |
| FC(F)(F)c1cccc([N-]C(=S)Nc2cccc(Br)c2)c1.FC(F)(F)c1cccc([N-]C(=S)Nc2cccc(Br)c2)c1.[Cu+2] [Cu4, Copper(II) Complex with 1-(3-bromophenyl)-3-[3-(trifluoromethyl)phenyl] thiourea] | 388 ± 4.4 µM | 8 µg/mL | 8 µg/mL | 8 µg/mL | 8 µg/mL | 8 µg/mL | 8 µg/mL | ≥256 µg/mL | 4 µg/mL | 8 µg/mL | ≥256 µg/mL | 8 µg/mL | 128 µg/mL | ≥256 µg/mL | 8 µg/mL | 8 µg/mL | 8 µg/mL | 8 µg/mL | 8 µg/mL | 128 µg/mL | MIC, staphylococcal isolates (staphylococcal isolates): 8 µg/mL; MIC (S. aureus 537): 8 µg/mL |
